Experimental data as given in US8563712B2, “Hydroxy-substituted gold(III) porphyrin complexes as histone deacetylase inhibitors” (The University of Hong Kong, priority 2009, dated 2013).

Legend:
acetylated histone H4 = assay: ChIP-PCR of acetylated histone H4 at promoter regions; type: cell-based, human; settings: MDA-MB-231, 24 hours
Procedure: To further confirm these unexpected observations, ChIP-PCR was performed to quantify the acetylated histone H4 levels at the promoter regions of the above genes. […] Similar levels of acetylated histone H4 were only observed at 24 hours after treatment.
MDA-MB-231 cells were treated with different drugs for 24 hours. ChiP-PCR was performed for analyzing the levels of acetylated histone H4 at the promoter regions of CTNNB1, WIF1, WNT5B, WNT1, WISP1 and ESR1, using antibody recognizing histone H4 acetylated at lysines 5, 8, 12, and 16. Bar charts represented the quantitative results by real time PCR analysis after normalization against the input DNA. Representative agarose gel images were shown at the bottom. […] Equal protein loading was confirmed by Amido black staining. *, P<0.01 versus vehicle control, n=3.

histone H4 acetylation = assay: Western blotting of global acetylated histone H4; type: cell-based, human; settings: MDA-MB-231, six and 24 hours
T47D = assay: Crystal violet anti-proliferative assay; type: cell-based, human
Procedure: (§1) Table 1). The presence of high concentrations of serum had no effects on the potencies of the drug. […] Similar results were observed when the drug exposure time was extended to 48 h. […] The antiproliferative activity of another gold(III) porphyrin complex ([Au^III(TPP)]Cl, gold-1a) in MDA-MB-231 cells was also tested. […] Apoptosis of MDA-MB-231 cells were evaluated by measuring DNA fragmentation.

MCF7 = assay: Crystal violet anti-proliferative assay; type: cell-based, human
Procedure: as §1

BT474 = assay: Crystal violet anti-proliferative assay; type: cell-based, human
Procedure: as §1

SKBR3 = assay: Crystal violet anti-proliferative assay; type: cell-based, human
Procedure: as §1

MDA-MB-231 = assay: Crystal violet anti-proliferative assay; type: cell-based, human
Procedure: as §1

[1] = test system: human breast carcinoma cells (BT474, MCF-7, T47D, MDA-MB-231, SKBR3); assay: Crystal violet assay, statements on the whole panel; type: cell-based; settings: five breast carcinoma cell lines
Procedure: as §1

[2] = test system: MDA-MB-231 tumor xenograft; assay: Mammary MDA-MB-231 tumor growth in nude mice; type: in vivo
Procedure: Most of the animals remained in a tumor-free status until day 25, at which recurrence of a tumor was observed.
MDA-MB-231 cells were inoculated into the mammary fat pad of nude mice as described in Methods. […] Tumor growth (A) and body weight (B) were monitored bi-weekly. C, Kaplan-Meier estimates of the survival curves were calculated and plotted. D, At the end of experiment, tumors were collected and weighed. # and *, P<0.05 versus PET control, n=4-6.

β-catenin = β-catenin protein level, nuclear activity, phosphorylation and ubiquitination; type: cell-based, human; settings: MDA-MB-231 cells
From the text: Aberrant activation of the Wnt/β-catenin signalling plays a key role in the development of many human cancer diseases. Intracellular accumulation of β-catenin protein has been observed in a large portion of human breast tumors. […] On the contrary, cisplatin had no influence on both the protein levels and nuclear activities of β-catenin. In the absence of a Wnt signal, β-catenin is phosphorylated by glycogen synthase kinase-3beta, which facilitates the subsequent ubiquitination and proteasome degradation.

[3] = intraductal 15 mg/kg, end of experiment

CC(/C=C/C(=O)NO)=C\[C@@H](C)C(=O)c1ccc(N(C)C)cc1 [TSA, trichostatin A] was tested, and the “acetylated histone H4 at CTNNB1 promoter” value (acetylated histone H4) was “not significantly altered”, the “acetylated histone H4 at ESR1 promoter” value (acetylated histone H4) was “increased” and the “acetylated histone H4 at WIF1 promoter” value (acetylated histone H4) was “no significant effects”. For the same compound, the “acetylated histone H4 at WISP1 promoter” value (acetylated histone H4) was “not significantly altered”, the “acetylated histone H4 at WNT1 promoter” value (acetylated histone H4) was “no significant effects” and the “acetylated histone H4 at WNT5B promoter” value (acetylated histone H4) was “no significant effects”. The “global histone H4 acetylation” value (histone H4 acetylation) was “significant induction”.

For N.N.[Cl][Pt][Cl] [cisplatin], the IC50 (T47D; 24 hours, 0.5% FBS) was 66.5 ± 12.4 µM, the IC50 (T47D; 24 hours, 10% FBS) was 99.4 ± 5.71 µM and the IC50 (T47D; 48 hours, 0.5% FBS) was 7.76 ± 5.54 µM. It also gave an IC50 (T47D; 48 hours, 10% FBS) of 6.69 ± 3.14 µM, an IC50 (MCF7; 24 hours, 0.5% FBS) of 14.3 ± 1.46 µM and an IC50 (MCF7; 24 hours, 10% FBS) of 20.1 ± 4.92 µM. It also gave an IC50 (MCF7; 48 hours, 0.5% FBS) of 10.1 ± 1.47 µM, an IC50 (MCF7; 48 hours, 10% FBS) of 15.9 ± 2.33 µM and an IC50 (BT474; 24 hours, 0.5% FBS) of 49 ± 0.5 µM. The IC50 (BT474; 24 hours, 10% FBS) was 45.1 ± 8.2 µM, the IC50 (BT474; 48 hours, 0.5% FBS) was 1.6 ± 0.53 µM and the IC50 (BT474; 48 hours, 10% FBS) was 2.89 ± 0.9 µM. The IC50 (SKBR3; 24 hours, 0.5% FBS) was 65.9 ± 25.5 µM, the IC50 (SKBR3; 24 hours, 10% FBS) was 76.3 ± 33.8 µM and the IC50 (SKBR3; 48 hours, 0.5% FBS) was 33.9 ± 11 µM. The IC50 (SKBR3; 48 hours, 10% FBS) was 41 ± 7.91 µM, the IC50 (MDA-MB-231; 24 hours, 0.5% FBS) was 7.37 ± 1.19 µM and the IC50 (MDA-MB-231; 24 hours, 10% FBS) was 21 ± 11.2 µM. The IC50 (MDA-MB-231; 48 hours, 0.5% FBS) was 6.52 ± 0.48 µM, the IC50 (MDA-MB-231; 48 hours, 10% FBS) was 18.4 ± 3.42 µM and the “IC50 values higher when compared to gold-2a” value [1] was 100-3000 times. The animals died ([2]; after two intraductal injections) was roughly 40%, the average tumor weights [2, 3] was 0.42 g and the “tumor weight decreased compared to control group” value [2, 3] was 34%. For the same compound, the “rates of tumor growth compared to gold-2a” value ([2]; intraductal, same dosage (15 mg/kg)) was “attenuated the rates of tumor growth to a much lesser degree”, the “nuclear transcriptional activities of β-catenin” value (β-catenin) was “no influence” and the “protein levels of β-catenin” value (β-catenin; from four hours, 0.5% and 10% FBS) was “no influence”.

With [Au^III(TPP)]Cl [gold-1a] the “less effective than gold-2a (growth inhibition curves)” value (MDA-MB-231; MDA-MB-231 cells, non-linear regression) was roughly 1000 fold and the “inhibition of breast tumor growth” value ([2]; sub-lethal concentrations) was “no inhibition”.
